Key:
Assay type in all cases: cell-based
[1] = system: Trypanosoma brucei Lister 427 VSG221 with APOL1 G1 recombinant protein; experiment: APOL1 G1 trypanosome cell rescue assay (Example B5); details: Trypanosoma brucei, 20 h, read-out: APOL1 G1 Trypanosome Rescue EC50, Trypanosoma brucei Lister 427 VSG221 with APOL1 G1 recombinant protein, 20 hours, CellTiter-Glo; geometric mean of at least 2 assay runs; † = single assay run
Method in brief: (§1)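 Compounds in duplicate 2-fold, 11-point series with 0.4% DMSO final. Next, tag-free mature APOL1 variant protein went in from a 2 μg/mL solution, then trypanosomes to 250 per well. Plates incubated 20 h humidified at 37° C, equilibrated to room temperature, and CellTiter-Glo added for luminescence.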

[2] = system: HEK293 cells overexpressing APOL1 G2; experiment: APOL1 G2 HEK293 cell rescue assay (reversal of cell death caused by overexpression of APOL1); details: Homo sapiens, HEK293, HEK293 overexpressing APOL1 G2; geometric mean of at least 2 assay runs; † = single assay run
Method in brief: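 EC50 is the half-maximal effective concentration for reversing cell death driven by APOL1 G2 overexpression in HEK293 cells. Reported as geometric mean of at least 2 runs on separate days, each run averaging duplicate wells per plate; some values from a single run.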

[3] = system: Trypanosoma brucei Lister 427 VSG221 with APOL1 G2 recombinant protein; experiment: APOL1 G2 trypanosome cell rescue assay (Example B5); details: Trypanosoma brucei, 20 h, read-out: APOL1 G2 Trypanosome Rescue EC50, Trypanosoma brucei Lister 427 VSG221 with APOL1 G2 recombinant protein, 20 hours, CellTiter-Glo; geometric mean of at least 2 assay runs; † = single assay run
Method in brief: as §1

Question: Cc1ccc2c(c1)C1(CCN(CCOc3ccc(S(C)(=O)=O)cc3)CC1)C(=O)N2 [Compound 66, 1′-[2-(4-methanesulfonylphenoxy)ethyl]-5-methyl-1,2-dihydrospiro[indole-3,4′-piperidin]-2-one] was tested. Which EC50 [1] did it give?
Answer: 0.322 µM

Question: What about the EC50 [2] of the same molecule?
Answer: 0.108 µM

Question: What about the EC50 [3] of the same molecule?
Answer: 0.0976 µM

Question: How did the EC50 [1] turn out when Cn1ncc2cc(OCCN3CCC4(CC3)C(=O)Nc3ccc(Cl)cc34)ccc21 [Compound 68, 5-chloro-1′-{2-[(1-methyl-1H-indazol-5-yl)oxy]ethyl}-1,2-dihydrospiro[indole-3,4′-piperidin]-2-one] was run?
Answer: 0.441 µM

Question: And the EC50 [2]?
Answer: 0.148 µM

Question: What about the EC50 [3] of the same molecule?
Answer: 0.115 µM

Question: What does the source list for CS(=O)(=O)c1ccc(OCCN2CCC3(CC2)C(=O)Nc2ccc(Cl)cc23)cc1 [Compound 69, 5-chloro-1′-[2-(4-methanesulfonylphenoxy)ethyl]-1,2-dihydrospiro[indole-3,4′-piperidin]-2-one]?
Answer: EC50 [1]: 0.184 µM; EC50 [2]: 0.0826 µM; EC50 [3]: 0.0465 µM

Question: How did the EC50 [1] turn out when Cn1ncc2cc(OCCN3CCC4(CC3)C(=O)Nc3ccccc34)ccc21 [Compound 70, 1′-{2-[(1-methyl-1H-indazol-5-yl)oxy]ethyl}-1,2-dihydrospiro[indole-3,4′-piperidin]-2-one] was run?
Answer: > 4 µM

Question: And the EC50 [2]?
Answer: 1.05 µM

Question: What about the EC50 [3] of the same molecule?
Answer: 0.918 µM

Question: Which EC50 [1] does the source give for CS(=O)(=O)c1ccc(OCCN2CCC3(CC2)C(=O)Nc2ccc(C#N)cc23)cc1 [Compound 71, 1′-[2-(4-methanesulfonylphenoxy)ethyl]-2-oxo-1,2-dihydrospiro[indole-3,4′-piperidine]-5-carbonitrile] here?
Answer: 1.36 µM

Question: And the EC50 [2]?
Answer: 0.345 µM

Question: What about the EC50 [3] of the same molecule?
Answer: 0.205 µM

Question: CS(=O)(=O)c1ccc(OCCN2CCC3(CC2)C(=O)Nc2ccc(Br)cc23)cc1 [Compound 72, 5-bromo-1′-[2-(4-methanesulfonylphenoxy)ethyl]-1,2-dihydrospiro[indole-3,4′-piperidin]-2-one] was tested. Which EC50 [1] did it give?
Answer: 0.177 µM

Question: What about the EC50 [2] of the same molecule?
Answer: 0.0359 µM

Question: And the EC50 [3]?
Answer: 0.0457 µM

Question: How did the EC50 [1] turn out when CN(c1ccc(OCCN2CCC3(CC2)C(=O)Nc2ccc(C#N)cc23)cc1)S(C)(=O)=O [Compound 75, N-[4-(2-{5-cyano-2-oxo-1,2-dihydrospiro[indole-3,4′-piperidin]-1′-yl}ethoxy)phenyl]-N-methylmethanesulfonamide] was run?
Answer: 0.578 µM

Question: And the EC50 [2]?
Answer: 0.114 µM

Question: And the EC50 [3]?
Answer: 0.146 µM

Question: For CN(c1ccc(OCCN2CCC3(CC2)C(=O)Nc2ccc(Cl)cc23)cc1)S(C)(=O)=O [Compound 76, N-[4-(2-{5-chloro-2-oxo-1,2-dihydrospiro[indole-3,4′-piperidin]-1′-yl}ethoxy)phenyl]-N-methylmethanesulfonamide], which EC50 [1] is on record?
Answer: 0.126 µM

Question: And the EC50 [2]?
Answer: 0.0477 µM

Question: What about the EC50 [3] of the same molecule?
Answer: 0.0355 µM

Question: With CS(C)(=O)=Nc1ccc(OCCN2CCC3(CC2)C(=O)Nc2ccc(C#N)cc23)cc1 [Compound 77, 1′-[2-(4-{[dimethyl(oxo)-λ^6-sulfanylidene]amino}phenoxy)ethyl]-2-oxo-1,2-dihydrospiro[indole-3,4′-piperidine]-5-carbonitrile] as the molecule, how does the EC50 [1] read?
Answer: > 4 µM

Question: What about the EC50 [2] of the same molecule?
Answer: 2.25 µM

Question: What about the EC50 [3] of the same molecule?
Answer: 1.45 µM

Question: CN1C(=O)CCc2cc(OCCN3CCC4(CC3)C(=O)Nc3ccc(Cl)cc34)cnc21 [Compound 78, 5-chloro-1′-{2-[(8-methyl-7-oxo-5,6,7,8-tetrahydro-1,8-naphthyridin-3-yl)oxy]ethyl}-1,2-dihydrospiro[indole-3,4′-piperidin]-2-one] was tested. Which EC50 [1] did it give?
Answer: 0.0976 µM

Question: And the EC50 [2]?
Answer: 0.041 µM

Question: And the EC50 [3]?
Answer: 0.0326 µM

Question: For CN1C(=O)CCc2cc(OCCN3CCC4(CC3)C(=O)Nc3ccc(C#N)cc34)cnc21 [Compound 79, 1′-{2-[(8-methyl-7-oxo-5,6,7,8-tetrahydro-1,8-naphthyridin-3-yl)oxy]ethyl}-2-oxo-1,2-dihydrospiro[indole-3,4′-piperidine]-5-carbonitrile], which EC50 [1] is on record?
Answer: 0.952 µM

Question: And the EC50 [2]?
Answer: 0.207 µM

Question: And the EC50 [3]?
Answer: 0.293 µM

Question: What does the source list for CC(C)[C@]1(O)C[C@@H](N2C(=O)CCc3cc(OCCN4CCC5(CC4)C(=O)Nc4ccc(Cl)cc45)cnc32)C1 [Compound 317, 5-chloro-1′-[2-({7-oxo-8-[(cis)-3-hydroxy-3-(propan-2-yl)cyclobutyl]-5,6,7,8-tetrahydro-1,8-naphthyridin-3-yl}oxy)ethyl]-1,2-dihydrospiro[indole-3,4′-piperidin]-2-one]?
Answer: EC50 [1]: 0.0335 µM; EC50 [2]: 0.0239 µM; EC50 [3]: 0.0115 µM

Question: Which EC50 [1] does the source give for C[C@]1(O)C[C@@H](n2c(=O)ccc3cc(OCCN4CCC5(CC4)C(=O)Nc4ccc(Cl)cc45)cnc32)C1 [Compound 323, 5-chloro-1′-[2-({7-oxo-8-[(cis)-3-hydroxy-3-methylcyclobutyl]-7,8-dihydro-1,8-naphthyridin-3-yl}oxy)ethyl]-1,2-dihydrospiro[indole-3,4′-piperidin]-2-one] here?
Answer: 0.0359 µM

Question: And the EC50 [2]?
Answer: 0.0173 µM

Question: And the EC50 [3]?
Answer: 0.0118 µM

Question: How did the EC50 [1] turn out when C[C@]1(O)C[C@@H](n2c(=O)ccc3cc(OCCN4CCC5(CC4)C(=O)Nc4ccc(C(F)F)cc45)cnc32)C1 [Compound 324, 5-(difluoromethyl)-1′-[2-({7-oxo-8-[(cis)-3-hydroxy-3-methylcyclobutyl]-7,8-dihydro-1,8-naphthyridin-3-yl}oxy)ethyl]-1,2-dihydrospiro[indole-3,4′-piperidin]-2-one] was run?
Answer: 0.035 µM

Question: What about the EC50 [2] of the same molecule?
Answer: 0.0256 µM

Question: And the EC50 [3]?
Answer: 0.00831 µM

Question: With O=C1CCc2cc(OCCN3CCC4(CC3)C(=O)Nc3ccc(Cl)cc34)cnc2N1C1CC(CO)C1 (stereo not drawn) [Compound 326, 5-chloro-1′-[2-({8-[3-(hydroxymethyl)cyclobutyl]-7-oxo-5,6,7,8-tetrahydro-1,8-naphthyridin-3-yl}oxy)ethyl]-1,2-dihydrospiro[indole-3,4′-piperidin]-2-one] as the molecule, how does the EC50 [1] read?
Answer: 0.0944 µM

Question: And the EC50 [2]?
Answer: 0.0312 µM

Question: What about the EC50 [3] of the same molecule?
Answer: 0.0327 µM

Question: With CC1(O)CC(CN2C(=O)CCc3cc(OCCN4CCC5(CC4)C(=O)Nc4ccc(Cl)cc45)cnc32)C1 (stereo not drawn) [Compound 327, 5-chloro-1′-[2-({8-[(3-hydroxy-3-methylcyclobutyl)methyl]-7-oxo-5,6,7,8-tetrahydro-1,8-naphthyridin-3-yl}oxy)ethyl]-1,2-dihydrospiro[indole-3,4′-piperidin]-2-one] as the molecule, how does the EC50 [1] read?
Answer: 0.0466 µM

Question: What about the EC50 [2] of the same molecule?
Answer: 0.0289 µM

Question: And the EC50 [3]?
Answer: 0.0134 µM

Question: C[C@]1(O)C[C@@H](n2c(=O)ccc3cc(OCCN4CCC5(CC4)C(=O)Nc4ccc(OC(F)F)cc45)cnc32)C1 [Compound 328, 5-(difluoromethoxy)-1′-[2-({7-oxo-8-[(cis)-3-hydroxy-3-methylcyclobutyl]-7,8-dihydro-1,8-naphthyridin-3-yl}oxy)ethyl]-1,2-dihydrospiro[indole-3,4′-piperidin]-2-one] was tested. Which EC50 [1] did it give?
Answer: 0.0921 µM

Question: What about the EC50 [2] of the same molecule?
Answer: 0.0341 µM

Question: What about the EC50 [3] of the same molecule?
Answer: 0.0239 µM

Question: Which results are given for O=C1Nc2ccc(Cl)cc2C12CCN(CCOc1cnc(C3(CO)CC3)nc1)CC2 [Compound 333, 5-chloro-1′-[2-({2-[1-(hydroxymethyl)cyclopropyl]pyrimidin-5-yl}oxy)ethyl]-1,2-dihydrospiro[indole-3,4′-piperidin]-2-one]?
Answer: EC50 [1]: 0.205 µM; EC50 [2]: 0.043 µM; EC50 [3]: 0.074 µM

Question: Which EC50 [1] does the source give for CP(C)(=O)C1(c2ccc(OCCN3CCC4(CC3)C(=O)Nc3ccc(Cl)cc34)cc2)CC1 [Compound 343, 5-chloro-1′-(2-{4-[1-(dimethylphosphoryl)cyclopropyl]phenoxy}ethyl)-1,2-dihydrospiro[indole-3,4′-piperidin]-2-one] here?
Answer: 0.203 µM

Question: And the EC50 [2]?
Answer: 0.162 µM

Question: And the EC50 [3]?
Answer: 0.0642 µM

Question: Which results are given for C[C@]1(O)C[C@@H](N2C(=O)Cc3cc(OCCN4CCC5(CC4)C(=O)Nc4ccc(Cl)cc45)cnc32)C1 [Compound 345, 5-chloro-1′-[2-({2-oxo-1-[(cis)-3-hydroxy-3-methylcyclobutyl]-1H,2H,3H-pyrrolo[2,3-b]pyridin-5-yl}oxy)ethyl]-1,2-dihydrospiro[indole-3,4′-piperidin]-2-one]?
Answer: EC50 [1]: 0.242 µM; EC50 [2]: 0.0364 µM; EC50 [3]: 0.0802 µM

Question: With C[C@]1(O)C[C@@H](N2C(=O)Cc3cc(OCCN4CCC5(CC4)C(=O)Nc4ccc(C(F)F)cc45)cnc32)C1 [Compound 346, 5-(difluoromethyl)-1′-[2-({2-oxo-1-[(cis)-3-hydroxy-3-methylcyclobutyl]-1H,2H,3H-pyrrolo[2,3-b]pyridin-5-yl]oxy)ethyl]-1,2-dihydrospiro[indole-3,4′-piperidin]-2-one] as the molecule, how does the EC50 [1] read?
Answer: 0.116 µM

Question: And the EC50 [2]?
Answer: 0.0343 µM

Question: What about the EC50 [3] of the same molecule?
Answer: 0.0377 µM

Question: With C[C@]1(O)C[C@@H](n2ccc3cc(OCCN4CCC5(CC4)C(=O)Nc4ccc(Cl)cc45)cnc32)C1 [Compound 349, 5-chloro-1′-[2-({1-[(cis)-3-hydroxy-3-methylcyclobutyl]-1H-pyrrolo[2,3-b]pyridin-5-yl}oxy)ethyl]-1,2-dihydrospiro[indole-3,4′-piperidin]-2-one] as the molecule, how does the EC50 [1] read?
Answer: 0.0898 µM

Question: And the EC50 [2]?
Answer: 0.0254 µM

Question: What about the EC50 [3] of the same molecule?
Answer: 0.0331 µM

Question: Which EC50 [1] does the source give for C[C@]1(O)C[C@@H](n2cnc3cc(OCCN4CCC5(CC4)C(=O)Nc4ccc(Cl)cc45)cc(C(F)(F)F)c32)C1 [Compound 352, 5-chloro-1′-[2-({1-[(cis)-3-hydroxy-3-methylcyclobutyl]-7-(trifluoromethyl)-1H-1,3-benzodiazol-5-yl}oxy)ethyl]-1,2-dihydrospiro[indole-3,4′-piperidin]-2-one] here?
Answer: 0.0188 µM

Question: And the EC50 [2]?
Answer: 0.0086 µM

Question: And the EC50 [3]?
Answer: 0.00822 µM
